Source: patent publication US5278146A, “CRF analogs” (The Salk Institute for Biological Studies, priority 1992, dated 1994)
Where no end group is shown, it is not given here. [ ]: non-standard residue; d: D form. Nle = CCCC[C@H](N)C(=O)O; Nva = CCC[C@H](N)C(=O)O

Columns and labels:
[1] = In vivo testing (procedure of C. Rivier et al., Science 218, 377): duration of potency and blood pressure; conditions: for Lowering of blood pressure: administered peripherally (where stated)
[2] = system: cultured rat pituitary cells; assay: Secretion of ACTH and β-endorphin by cultured rat pituitary cells; type: cell-based; conditions: for Stimulation of the secretion of ACTH and β-END-LI: general procedure of Example III
Method: The synthetic peptide [D-Glu^20 ]-oCRF is examined for its effects on the secretion of ACTH and β-endorphin vitro and was also in vivo. The potency of synthetic [D-Glu^20 ]-oCRF to stimulate the secretion of ACTH and β-endorphin by cultured rat pituitary cells is measured using the procedure as generally set forth in Endocrinology, 91, 562 (1972) and compared against synthetic oCRF.

[3] = system: ACTH and β-endorphin-like activities (β-END-LI); conditions: in vitro and in vivo; cited from earlier work
[4] = injected peripherally, e.g. intravenously; cited from earlier work

Compound	Lowering of blood pressure [1]	Stimulation of the secretion of ACTH and β-END-LI [2]	also measured
CC[C@H](C)[C@H](NC(=O)[C@@H](NC(=O)[C@H](CC(=O)O)NC(=O)[C@H](CC(C)C)NC(=O)[C@H](CC(C)C)NC(=O)[C@H](CC(C)C)NC(=O)[C@H](CCCNC(=N)N)NC(=O)[C@H](CC(N)=O)NC(=O)[C@H](CC(N)=O)NC(=O)[C@H](C)NC(=O)[C@H](C)NC(=O)[C@H](CCC(N)=O)NC(=O)[C@H](CCC(=O)O)NC(=O)[C@H](CCCCN)NC(=O)[C@H](CCC(=O)O)NC(=O)[C@H](CCCCN)NC(=O)[C@H](CCC(=O)O)NC(=O)[C@H](CCC(N)=O)NC(=O)[C@H](CCCCN)NC(=O)[C@H](CCCNC(=N)N)NC(=O)[C@H](C)NC(=O)[C@@H](CCC(=O)O)NC(=O)[C@@H](NC(=O)[C@H](CCSC)NC(=O)[C@H](CCCCN)NC(=O)[C@H](CCCNC(=N)N)NC(=O)[C@H](CC(C)C)NC(=O)[C@H](CC(C)C)NC(=O)[C@H](CCC(=O)O)NC(=O)[C@@H](Cc1ccccc1)NC(=O)[C@H](CO)NC(=O)[C@H](CC(C)C)NC(=O)[C@H](CC(=O)O)NC(=O)[C@@H](NC(=O)[C@H](CO)NC(=O)[C@@H](NC(=O)[C@@H]1CCCN1C(=O)[C@@H]1CCCN1C(=O)CNC(=O)[C@@H]1CCC(=O)N1)[C@@H](C)CC)[C@@H](C)CC)[C@@H](C)CC)[C@@H](C)CC)C(N)=O	very significant lowering of blood pressure	stimulates the secretion of ACTH and β-END-LI	
CCCC[C@H](NC(=O)[C@@H](CCC(=O)O)NC(=O)[C@H](CC(C)C)NC(=O)[C@@H](NC(=O)[C@H](CCC(=O)O)NC(=O)[C@H](CCCNC(=N)N)NC(=O)[C@H](CC(C)C)NC(=O)[C@H](CC(C)C)NC(=O)[C@H](Cc1c[nH]cn1)NC(=O)[C@H](Cc1ccccc1)NC(=O)[C@@H](NC(=O)[C@H](CC(C)C)NC(=O)[C@H](CC(=O)O)NC(=O)[C@H](CC(C)C)NC(=O)[C@H](CO)NC(=O)[C@@H](NC(=O)[C@@H]1CCCN1C(=O)[C@@H]1CCCN1C(=O)[C@H](CCC(=O)O)NC(=O)[C@H](CCC(N)=O)NC(=O)[C@@H](N)CO)[C@@H](C)CC)[C@@H](C)O)C(C)C)C(=O)N[C@H](C(=O)N[C@@H](CCCCN)C(=O)N[C@@H](C)C(=O)N[C@@H](CC(=O)O)C(=O)N[C@@H](CCC(N)=O)C(=O)N[C@@H](CC(C)C)C(=O)N[C@@H](C)C(=O)N[C@@H](CCC(N)=O)C(=O)N[C@@H](CCC(N)=O)C(=O)N[C@@H](C)C(=O)N[C@H](Cc1c[nH]cn1)C(=O)N[C@@H](CO)C(=O)N[C@@H](CC(N)=O)C(=O)N[C@@H](CCCNC(=N)N)C(=O)N[C@@H](CCCCN)C(=O)N[C@@H](CC(C)C)C(=O)N[C@@H](CC(C)C)C(=O)N[C@@H](CC(=O)O)C(=O)N[C@H](C(=O)N[C@@H](C)C(N)=O)[C@@H](C)CC)[C@@H](C)O [[D-Glu^20, Nle^21, D-His^32]-oCRF]	very significant lowering of blood pressure	stimulates the secretion of ACTH and β-END-LI	
CCCC[C@H](NC(=O)[C@@H](CCC(=O)O)NC(=O)[C@H](CC(C)C)NC(=O)[C@@H](NC(=O)[C@H](CCC(=O)O)NC(=O)[C@H](CCCNC(=N)N)NC(=O)[C@H](CC(C)C)NC(=O)[C@H](CC(C)C)NC(=O)[C@H](Cc1c[nH]cn1)NC(=O)[C@H](Cc1ccccc1)NC(=O)[C@@H](NC(=O)[C@H](CC(C)C)NC(=O)[C@H](CC(=O)O)NC(=O)[C@H](CC(C)C)NC(=O)[C@H](CO)NC(=O)[C@@H](NC(=O)[C@@H]1CCCN1C(=O)[C@@H]1CCCN1C(=O)[C@H](CCC(=O)O)NC(=O)[C@H](CCC(N)=O)NC(=O)[C@@H](N)CO)[C@@H](C)CC)[C@@H](C)O)C(C)C)C(=O)N[C@H](C(=O)N[C@@H](CCCCN)C(=O)N[C@@H](C)C(=O)N[C@@H](CC(=O)O)C(=O)N[C@@H](CCC(N)=O)C(=O)N[C@@H](CC(C)C)C(=O)N[C@@H](C)C(=O)N[C@@H](CCC(N)=O)C(=O)N[C@@H](CCC(N)=O)C(=O)N[C@@H](C)C(=O)N[C@@H](Cc1c[nH]cn1)C(=O)N[C@@H](CO)C(=O)N[C@@H](CC(N)=O)C(=O)N[C@@H](CCCNC(=N)N)C(=O)N[C@@H](CCCCN)C(=O)N[C@@H](CC(C)C)C(=O)N[C@@H](CC(C)C)C(=O)N[C@@H](CC(=O)O)C(=O)N[C@H](C(=O)N[C@@H](C)C(N)=O)[C@@H](C)CC)[C@@H](C)O [[D-Glu^20, Nle^21]-oCRF]	very significant lowering of blood pressure	stimulates the secretion of ACTH and β-END-LI	
CC[C@H](C)[C@H](NC(=O)[C@H](CC(=O)O)NC(=O)[C@H](CC(C)C)NC(=O)[C@H](CC(C)C)NC(=O)[C@H](CCCCN)NC(=O)[C@H](CCCNC(=N)N)NC(=O)[C@H](CC(N)=O)NC(=O)[C@H](CO)NC(=O)[C@H](Cc1c[nH]cn1)NC(=O)[C@H](C)NC(=O)[C@H](CCC(N)=O)NC(=O)[C@H](CCC(N)=O)NC(=O)[C@H](C)NC(=O)[C@H](CC(C)C)NC(=O)[C@H](CCC(N)=O)NC(=O)[C@H](CC(=O)O)NC(=O)[C@H](C)NC(=O)[C@H](CCCCN)NC(=O)[C@@H](NC(=O)[C@H](CCSC)NC(=O)[C@@H](CCC(=O)O)NC(=O)[C@H](CC(C)C)NC(=O)[C@@H](NC(=O)[C@H](CCC(=O)O)NC(=O)[C@H](CCCNC(=N)N)NC(=O)[C@H](CC(C)C)NC(=O)[C@H](CC(C)C)NC(=O)[C@H](Cc1c[nH]cn1)NC(=O)[C@H](Cc1ccccc1)NC(=O)[C@@H](NC(=O)[C@H](CC(C)C)NC(=O)[C@H](CC(=O)O)NC(=O)[C@H](CC(C)C)NC(=O)[C@H](CO)NC(=O)[C@@H](NC(=O)[C@@H]1CCCN1C(=O)[C@@H]1CCCN1C(=O)[C@H](CCC(=O)O)NC(=O)[C@H](CCC(N)=O)NC(=O)[C@@H](N)CO)[C@@H](C)CC)[C@@H](C)O)C(C)C)[C@@H](C)O)C(=O)N[C@@H](C)C(N)=O [[D-Glu^20]-oCRF]	significant lowering of blood pressure		Duration of potency in vivo ([1]; in vivo): longer duration of potency; EC50 ([2]; cultured rat pituitary cells, read-out: Concentration at which half-maximal responses are observed (ACTH and β-endorphin secretion)): ~0.17 nM; Potency relative to the native hormone ([2]; in vitro, compared against synthetic oCRF): about twice as potent as the native hormone; Secretory response to maximal concentrations ([2]; maximal (1-5 nM) concentrations): at a plateau level
Bz-Ser-Leu-Asp-Leu-Thr-D-Phe-His-Leu-Leu-Arg-Glu-Val-Leu-Glu-Nle-Ala-Arg-Ala-Glu-Gln-Leu-Ala-Gln-Gln-Ala-D-His-Ser-Asn-Arg-Lys-Leu-Nle-Glu-Ile-Ile-NH2	very significant lowering of blood pressure	stimulates the secretion of ACTH and β-END-LI	
H-D-Pro-Pro-Ile-Ser-Leu-Asp-Leu-Thr-D-Phe-His-Leu-Leu-Arg-Glu-Val-Leu-Glu- Nle-Ala-Arg-Ala-Glu-Gln-Leu-Ala-Gln-Gln-Ala-His-Ser-Asn-Arg-Lys-CML-Nle-Ile-Ile-NH2	very significant lowering of blood pressure	stimulates the secretion of ACTH and β-END-LI	
H-SQEPPISLDLTFHLLREVL[dE][Nle]TK[dA]DQLAQQAHSNRKL[Nle]DIA-NH2 [[D-Glu^20, D-Ala^24, Nle^21,38]-oCRF]	very significant lowering of blood pressure	stimulates the secretion of ACTH and β-END-LI	
H-SQEPPISLDLTFHLLRE[Nle]L[dE][Nle]AKAEQEAEQA[dH]LNRLLLEEA-NH2 [[Nle^18,21, D-Glu^20, D-His^32]-AHC]	very significant lowering of blood pressure	stimulates the secretion of ACTH and β-END-LI	
H-SQEPPISLDLT[dF]HLLREML[dE]RAKAEQEAEQAALNRLLLEEA-NH2 [[D-Phe^12, D-Glu^20, Arg^21]-AHC]	very significant lowering of blood pressure	stimulates the secretion of ACTH and β-END-LI	
H-SQEPPISLDLT[dF]HLLRE[Nle]LE[Nle]AK[dA]EQEAEQAALNRLLLEEA-NH2 [[D-Phe^12, Nle^18,21, D-Ala^24]-AHC]	very significant lowering of blood pressure	stimulates the secretion of ACTH and β-END-LI	
H-SQ[dY]PPISLDLTFHLLRE[Nle]L[dE][Nva]AK[dA]EQEAEQAALNRLLLEEA-NH2	very significant lowering of blood pressure	stimulates the secretion of ACTH and β-END-LI	
H-Ser-Gln-Glu-Pro-Pro-Ile-Ser-Leu-Asp-Leu-Thr-D-Phe-Glu-Leu-Leu-Arg-Glu-Met-T-Glu-Ile-Ala-Lys-Ala-Glu-Gln-Glu-Ala-Glu-Gln-Ala-Ala-Leu-Asn-Arg-Lys-Tyr-Leu-Glu-Glu-Val-NH2	very significant lowering of blood pressure	stimulates the secretion of ACTH and β-END-LI	
H-Ser-Glu-Glu-Pro-Pro-Ile-Ser-Leu-Asp-Leu-Thr-D-Phe-Glu-Lue-Leu-Arg-Glu-Nle-Leu-Glu-Met-Glu-Orn-Ala-Glu-Lys-Glu-Ala-Glu-Gln-Ala-Ala-Leu-Asn-Arg-Leu-Leu-Leu-Glu-Glu-Ala-NH2	very significant lowering of blood pressure	stimulates the secretion of ACTH and β-END-LI	
H-pGlu-Glu-Pro-Pro-Ile-Ser-Leu-Asp-:-Thr-D-Phe-His-Leu-Leu-Arg-Glu-Val-Leu-Glu-Met-Ala-Arg-D-Ala-Glu-Gln-Leu-Ala-Gln-Gln-Ala-His-Ser-Asn-Arg-Lys-Leu- Met-Glu-Ile-Ile-NH2 [[pGlu^2, D-Phe^12, D-Ala^24]-rCRF(2-41)]	very significant lowering of blood pressure	stimulates the secretion of ACTH and β-END-LI	
rCRF: rat CRF, homologous hentetracontapeptide of U.S. Pat. No. 4,489,163; same formula as human CRF (SEEPPISLDLTFHLLREVLEMARAEQLAQQAHSNRKLMEII; ends and bridges not checked; UniProt P01143 145-185, looked up)			Stimulation of ACTH and β-endorphin secretion / β-END-LI (background) [3]: stimulate ACTH and β-endorphin-like activities; Lowering of blood pressure (background) [4]: substantially lower blood pressure
